Source: ChEMBL document CHEMBL5030547, “Synthesis and biological studies of new piperidino-1,2,3-triazole hybrids with 3-aryl isoxazole side chains” (Bioorg Med Chem Lett, 2021)

How the values were obtained:
PC-3 = experiment: Cytotoxicity against human PC-3 cells assessed as reduction in cell viability after 48 hrs; type: functional, cell-based; conditions: PC-3, 48 h
Fibroblast = experiment: Cytotoxicity against human skin fibroblast cells assessed as reduction in cell viability after 48 hrs; type: cell-based
MDA-MB-231 = experiment: Cytotoxicity against human MDA-MB-231 cells assessed as reduction in cell viability after 48 hrs; type: functional, cell-based; conditions: MDA-MB-231, 48 h
Caco-2 = experiment: Cytotoxicity against human Caco-2 cells assessed as reduction in cell viability after 48 hrs; type: functional, cell-based; conditions: Caco-2, 48 h
MCF7 [1] = experiment: Cytotoxicity against human MCF7 cells assessed as reduction in cell viability after 48 hrs; type: functional, cell-based; conditions: MCF7, 48 h
MDA-MB-468 = experiment: Cytotoxicity against human MDA-MB-468 cells assessed as reduction in cell viability after 48 hrs; type: functional, cell-based; conditions: MDA-MB-468, 48 h
Huh-7 = experiment: Cytotoxicity against human Huh-7 cells assessed as reduction in cell viability after 48 hrs; type: functional, cell-based; conditions: Huh-7, 48 h
HCT-116 = experiment: Cytotoxicity against human HCT-116 cells assessed as reduction in cell viability after 48 hrs; type: functional, cell-based; conditions: HCT-116, 48 h
[2] = Inhibition of Bcl-XL- PUMA protein-protein interaction in human MCF7 cells incubated for overnight by BRET assay; type: cell-based
MCF7 [3] = experiment: Inhibition of Bcl-XL- PUMA protein-protein interaction in human MCF7 cells at 20 uM incubated for overnight by BRET assay relative to control; type: cell-based

| IC50 [2] | SMILES | IC50 (PC-3) | IC50 (Fibroblast) | IC50 (MDA-MB-231) | IC50 (Caco-2) | IC50 (MCF7 [1]) | IC50 (MDA-MB-468) | IC50 (Huh-7; read-out: IC50) | IC50 (HCT-116) | inhibition (MCF7 [3]) | IC50 (Huh-7) |
| --- | --- | --- | --- | --- | --- | --- | --- | --- | --- | --- | --- |
| – | O=[N+]([O-])c1ccc(CN2CCC(n3cc(CC(OCc4cc(-c5ccccc5Br)no4)c4ccc(Br)cc4)nn3)CC2)cc1 (centres undefined) | > 25 µM | > 25 µM | > 25 µM | 3000 nM | 6 µM | > 25 µM | > 25000 nM | > 25 µM | – | – |
| – | COc1cccc2c1C(=O)c1c(O)c3c(c(O)c1C2=O)C[C@@](O)(C(=O)CO)C[C@@H]3O[C@H]1C[C@H](N)[C@H](O)[C@H](C)O1 [DOXORUBICIN] | – | 0.02 µM | 0.04 µM | – | 0.1 µM | 0.06 µM | 20 nM | 0.08 µM | – | – |
| – | O=[N+]([O-])c1ccc(CN2CCC(n3cc(CC(OCc4cc(-c5ccc(Br)cc5)no4)c4ccc(Br)cc4)nn3)CC2)cc1 (centres undefined) | > 25 µM | > 25 µM | > 25 µM | 3000 nM | 4 µM | 5 µM | 2000 nM | > 25 µM | – | – |
| – | COc1cccc(-c2cc(COC(Cc3cn(C4CCN(Cc5ccc([N+](=O)[O-])cc5)CC4)nn3)c3ccc(Br)cc3)on2)c1 (centres undefined) | > 25 µM | > 25 µM | > 25 µM | 5000 nM | 7 µM | > 25 µM | 5000 nM | > 25 µM | – | – |
| – | COc1ccccc1-c1cc(COC(Cc2cn(C3CCN(Cc4ccc([N+](=O)[O-])cc4)CC3)nn2)c2ccc(Br)cc2)on1 (centres undefined) | > 25 µM | > 25 µM | > 25 µM | > 25000 nM | 3 µM | > 25 µM | 5000 nM | > 25 µM | – | – |
| – | O=[N+]([O-])c1ccc(CN2CCC(n3cc(CC(OCc4cc(-c5cccc(F)c5)no4)c4ccc(Br)cc4)nn3)CC2)cc1 (centres undefined) | 9 µM | 10 µM | 5 µM | 5000 nM | 8 µM | 3 µM | 3000 nM | 6 µM | – | – |
| – | O=[N+]([O-])c1ccc(CN2CCC(n3cc(CC(OCc4cc(-c5ccccc5)no4)c4ccc(Br)cc4)nn3)CC2)cc1 (centres undefined) | > 25 µM | > 25 µM | > 25 µM | 7000 nM | > 25 µM | 3 µM | 7000 nM | > 25 µM | – | – |
| 3.8 µM | O=[N+]([O-])c1ccc(CN2CCC(n3cc(CC(OCc4cc(-c5ccccc5F)no4)c4ccc(Br)cc4)nn3)CC2)cc1 (centres undefined) | 6 µM | > 25 µM | 4 µM | 4000 nM | 8 µM | 4 µM | 2000 nM | 9 µM | 10% | – |
| – | COc1ccc(-c2cc(COC(Cc3cn(C4CCN(Cc5ccc([N+](=O)[O-])cc5)CC4)nn3)c3ccc(Br)cc3)on2)cc1 (centres undefined) | 3 µM | > 25 µM | > 25 µM | 3000 nM | 4 µM | 9 µM | 2000 nM | > 25 µM | – | – |
| – | N#Cc1cccc(-c2cc(COC(Cc3cn(C4CCN(Cc5ccc([N+](=O)[O-])cc5)CC4)nn3)c3ccc(Br)cc3)on2)c1 (centres undefined) | > 25 µM | > 25 µM | > 25 µM | 3000 nM | 2 µM | > 25 µM | 3000 nM | > 25 µM | – | – |
| – | N#Cc1ccc(-c2cc(COC(Cc3cn(C4CCN(Cc5ccc([N+](=O)[O-])cc5)CC4)nn3)c3ccc(Br)cc3)on2)cc1 (centres undefined) | 2 µM | > 25 µM | > 25 µM | 2000 nM | 3 µM | 5 µM | 5000 nM | > 25 µM | – | – |
| – | O=[N+]([O-])c1ccc(CN2CCC(n3cc(CC(OCc4cc(-c5ccc(F)cc5)no4)c4ccc(Br)cc4)nn3)CC2)cc1 (centres undefined) | > 25 µM | > 25 µM | > 25 µM | 3000 nM | 7 µM | 4 µM | 2000 nM | > 25 µM | – | – |
| – | O=[N+]([O-])c1ccc(CN2CCC(n3cc(CC(OCc4cc(-c5cccc(Br)c5)no4)c4ccc(Br)cc4)nn3)CC2)cc1 (centres undefined) | > 25 µM | > 25 µM | > 25 µM | 5000 nM | 6 µM | > 25 µM | 3000 nM | > 25 µM | – | – |
| – | CC[C@H](CO)Nc1nc(NCc2ccccc2)c2ncn(C(C)C)c2n1 [SELICICLIB] | 11 µM | 15 µM | 17 µM | – | – | 18 µM | – | – | – | 9000 nM |
